Duration of effect and IC50 data for 25 molecules are collected here from patent publication US6215002A, “Pyrrolopyrrolone derivatives as inhibitors of neutrophil elastase” (priority 1996, dated 2001).

Where a name gives a salt, the structure may show the parent alone.

The term IC50 denotes the concentration needed to halve the response being measured.

The first assay deals with Intracellular elastase. As to the kind of experiment: Oral in vivo model using IL-8 induced lung infiltrates for the assessment of intracellular elastase inhibition (hamster test). Particulars: effective dose of less than 40 mg/kg, IL-8 intratracheal. The procedure: An Oral in vivo Model Using IL-8 Induced Lung Infiltrates For the Assessment of Intracellular Elastase Inhibition
Adult hamsters (100-150 g) are randomised into groups (n=4) and fasted overnight. Under gaseous anaesthetic (3% isofluorane) animals are dosed orally with 1 mL/100 g water as vehicle or containing predissolved compounds. Either at the same time, or subsequently under anaesthetic, animals are dosed intratracheally with 1 ug recombinant human IL-8 in 100 uL sterile saline. Six hours after IL-8 dosing animals are sacrificed using intrapertoneal pentobarbitone. The lungs are ravaged with 2×2.5 mL sterile saline and femurs are removed by dissection.
Intracellular elastase is prepared from neutrophils collected by lavage and from femoral bone marrow. This is achieved by sonication of the neutrophils and centrifugation to yield intracellular granules. These are disrupted by freeze/thawing and sonication. Elastase and myeloperoxidase assays are then performed on these samples to assess the efficacy of the compounds and to normalise for neutrophil recovery.
In the case of `CCC[C@H]1C(=O)N(S(=O)(=O)c2ccc3ccccc3c2)[C@H]2CCN(C(=O)CCN3CCCCC3)[C@H]12` (relative stereo) [Example 2, rel-(3R,3aR,6aS)-1-(Naphthalene-2-sulfonyl)-4-(3-piperidin-1-yl-propionyl)-3-propyl-hexahydro-pyrrolo[3,2-b]pyrrol-2-one hydrochloride], the duration of effect entry is “at least 6 hours”.
`CCC[C@H]1C(=O)N(S(C)(=O)=O)[C@H]2CCN(C(=O)CCN3CCCCC3)[C@H]12` (relative stereo) [Example 29, rel-(3R,3aR,6aS)-1-Methanesulfonyl-4-(3-piperidin-1-yl-propionyl)-3-propyl-hexahydro-pyrrolo[3,2-b]pyrrol-2-one]: the duration of effect result was “at least 6 hours”.
On the same count and under the same terms, as for `CC(C)[C@H]1C(=O)N(S(C)(=O)=O)[C@H]2CCN(C(=O)/C=C/CN3CCCCC3)[C@H]12.Cl` (relative stereo) [Example 135, rel-(3R,3aR,6aS)-3-Isopropyl-1-methanesulfonyl-4-(4-piperidin-1-yl-but-2E-enoyl)-hexahydro-pyrrolo[3,2-b]pyrrol-2-one hydrochloride], the entry is “at least 6 hours”; as for `CC(C)[C@@H]1C(=O)N(S(C)(=O)=O)[C@@H]2CCN(C(=O)/C=C/CN3CCCCC3)[C@H]21.Cl` [Example 154, (3S,3aS,6aR)-3-Isopropyl-1-methanesulfonyl-4-(4-piperidin-1-yl-but-2E-enoyl)-hexahydro-pyrrolo[3,2-b]pyrrol-2-one hydrochloride], “at least 6 hours”.
On to `CC(C)[C@H]1C(=O)N(S(C)(=O)=O)[C@H]2CCN(C(=O)/C=C/CN3CCCCC3)[C@H]12.Cl` [Example 155, (3R,3aR,6aS)-3-Isopropyl-1-methanesulfonyl-4-(4-piperidin-1-yl-but-2E-enoyl)-hexahydro-pyrrolo[3,2-b]pyrrol-2-one hydrochloride], for which the duration of effect entry is recorded as “at least 6 hours”.

A further assay concerns the target T1, human neutrophil elastase (Homo sapiens, UniProt P08246).
T1 sequence (P08246 30-267): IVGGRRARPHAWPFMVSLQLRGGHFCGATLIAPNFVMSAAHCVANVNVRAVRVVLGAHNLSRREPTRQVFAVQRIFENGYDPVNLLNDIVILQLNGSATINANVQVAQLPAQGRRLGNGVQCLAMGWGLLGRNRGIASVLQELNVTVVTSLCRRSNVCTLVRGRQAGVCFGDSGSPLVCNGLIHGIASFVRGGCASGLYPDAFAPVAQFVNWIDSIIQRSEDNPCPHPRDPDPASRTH
Nature of the assay: In vitro assay of human neutrophil elastase (HNE). It counts as biochemical. To be noted: 118 nM purified human neutrophil elastase, pH 8.6, 15 min incubation at 30° C., MeO-succinyl-alanyl-alanyl-prolyl-valyl-p-nitroanilide substrate; read-out: HNE IC50. The essentials: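 Residual activity was taken as the 10 min rate of absorbance rise at 405 nm after adding 0.6 mM MeO-succinyl-AAPV-p-nitroanilide. Curve fitting of activity against concentration gave IC50.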
For the molecule `CCC[C@H]1C(=O)N(S(=O)(=O)c2ccc3ccccc3c2)[C@H]2CCN(C(=O)CCN3CCCCC3)[C@H]12` (relative stereo) [Example 2, rel-(3R,3aR,6aS)-1-(Naphthalene-2-sulfonyl)-4-(3-piperidin-1-yl-propionyl)-3-propyl-hexahydro-pyrrolo[3,2-b]pyrrol-2-one hydrochloride], the IC50 turned out to be 137 nM.
In the case of `CCC[C@H]1C(=O)N(S(C)(=O)=O)[C@H]2CCN(C(=O)CCN3CCCCC3)[C@H]12` (relative stereo) [Example 29, rel-(3R,3aR,6aS)-1-Methanesulfonyl-4-(3-piperidin-1-yl-propionyl)-3-propyl-hexahydro-pyrrolo[3,2-b]pyrrol-2-one], the half-maximal inhibitory concentration (IC50) came out at 139 nM.
Consider `CC(C)[C@H]1C(=O)N(S(C)(=O)=O)[C@H]2CCN(S(=O)(=O)c3ccc(N)cc3)[C@H]12` (relative stereo) [Example 237, rel-(3R,3aR,6aS)-4-(4-Amino-benzenesulfonyl)-3-isopropyl-1-methanesulfonyl-hexahydro-pyrrolo[3,2-b]pyrrol-2-one], for which the IC50 is 29 nM.
`CCC[C@H]1C(=O)N(S(C)(=O)=O)[C@H]2CCN(C(=O)c3ccccn3)[C@H]12` (relative stereo) [Example 238, rel-(3R,3aR,6aS)-1-Methanesulfonyl-3-propyl-4-(pyridine-2-carbonyl)-hexahydro-pyrrolo[3,2-b]pyrrol-2-one]: the IC50 amounted to 9 nM.
As for `CCCCOc1ccc(C(=O)N2CC[C@H]3[C@H]2[C@@H](CCC)C(=O)N3S(C)(=O)=O)cc1` (relative stereo) [Example 239, rel-(3R,3aR,6aS)-4-(4-Butoxy-benzoyl)-1-methanesulfonyl-3-propyl-hexahydro-pyrrolo[3,2-b]pyrrol-2-one], the half-inhibitory concentration (IC50) is 18 nM.
In the case of `CCC[C@H]1C(=O)N(S(C)(=O)=O)[C@H]2CCN(C(=O)c3cccn3C)[C@H]12` (relative stereo) [Example 240, rel-(3R,3aR,6aS)-1-Methanesulfonyl-4-(1-methyl-1H-pyrrole-2-carbonyl)-3-propyl-hexahydro-pyrrolo[3,2-b]pyrrol-2-one], the IC50 amounted to 33 nM.
On to `CCC[C@H]1C(=O)N(S(C)(=O)=O)[C@H]2CCN(C(=O)c3ccc(NC(C)=O)nc3)[C@H]12` (relative stereo) [Example 241, rel-N-[5-(4-Methanesulfonyl-5-oxo-6R-propyl-hexahydro(3aS,6aR)-pyrrolo[3,2-b]pyrrole-1-carbonyl)-pyridin-2-yl]-acetamide], for which the IC50 is 22 nM.
As to `CCC[C@H]1C(=O)N(S(C)(=O)=O)[C@H]2CCN(C(=O)c3ccc[nH]3)[C@H]12` (relative stereo) [Example 242, rel-(3R,3aR,6aS)-1-Methanesulfonyl-3-propyl-4-(1H-pyrrole-2-carbonyl)-hexahydro-pyrrolo[3,2-b]pyrrol-2-one], the IC50 worked out at 22 nM.
Take `CCC[C@H]1C(=O)N(S(C)(=O)=O)[C@H]2CCN(C(=O)c3ccc(C(F)(F)F)cc3)[C@H]12` (relative stereo) [Example 244, rel-(3R,3aR,6aS)-1-Methanesulfonyl-3-propyl-(4-trifluoromethyl-benzoyl)-hexahydro-pyrrolo[3,2-b]pyrrol-2-one]: the IC50 turned out to be 11 nM.
`CCC[C@H]1C(=O)N(S(C)(=O)=O)[C@H]2CCN(C(=O)c3ccc(S(C)(=O)=O)cc3)[C@H]12` (relative stereo) [Example 245, rel-(3R,3aR,6aS)-1-Methanesulfonyl-4-(4-methanesulfonyl-benzoyl)-3-propyl-hexahydro-pyrrolo[3,2-b]pyrrol-2-one]: the 50% inhibitory concentration (IC50) was 9 nM.
With `CCC[C@H]1C(=O)N(S(C)(=O)=O)[C@H]2CCN(C(=O)c3ccncc3)[C@H]12` (relative stereo) [Example 246, rel-(3R,3aR,6aS)-1-Methanesulfonyl-3-propyl-4-(pyridine-4-carbonyl)-hexahydro-pyrrolo[3,2-b]pyrrol-2-one], the IC50 turned out to be 21 nM.
On to `CCC[C@H]1C(=O)N(S(C)(=O)=O)[C@H]2CCN(C(=O)c3cccnc3)[C@H]12` (relative stereo) [Example 247, rel-(3R,3aR,6aS)-1-Methanesulfonyl-3-propyl-4-(pyridine-3-carbonyl)-hexahydro-pyrrolo[3,2-b]pyrrol-2-one], for which the IC50 was 28 nM.
For the molecule `CC(C)[C@H]1C(=O)N(S(C)(=O)=O)[C@H]2CCN(C(=O)CCCC3CCNCC3)[C@H]12` (relative stereo) [Example 255, rel-(3R,3aR,6aS)-3-Isopropyl-1-methanesulfonyl-4-(4-piperidin-4-yl-butyryl)-hexahydro-pyrrolo[3,2-b]pyrrol-2-one hydrochloride], the IC50 was 144 nM.
As for `CC(C)[C@H]1C(=O)N(S(C)(=O)=O)[C@H]2CCN(C(=O)CCCC3CCN(C)CC3)[C@H]12` (relative stereo) [Example 256, rel-(3R,3aR,6aS)-3-Isopropyl-1-methanesulfonyl-4-[4-(1-methyl-piperidin-4-yl)-butyryl]-hexahydro-pyrrolo[3,2-b]pyrrol-2-one hydrochloride], the concentration for half-maximal inhibition (IC50) was determined as 78 nM.
Take `CS(=O)(=O)N1C(=O)[C@H](C2CC2)[C@@H]2[C@@H]1CCN2C(=O)/C=C/CN1CCCCC1` (relative stereo) [Example 257, rel-(3R,3aR,6aS)-3-Cyclopropyl-1-methanesulfonyl-4-(4-piperidin-1-yl-but-2E-enoyl)-hexahydro-pyrrolo[3,2-b]pyrrol-2-one hydrochloride]: the 50% inhibitory concentration (IC50) turned out to be 62 nM.
As for `C=CC[C@@H]1C(=O)N(S(=O)(=O)c2ccc3ccccc3c2)[C@@H]2CCN(C(=O)OCc3ccccc3)[C@@H]12` [Example 53, (3aR,6S,6aS)-6-Allyl-4-(naphthalene-2-sulfonyl)-5-oxo-hexahydro-pyrrolo[3,2-n]pyrrole-1-carboxylic acid benzyl ester], the IC50 was 143 nM.
As to `CCC[C@@H]1C(=O)N(S(=O)(=O)c2ccc3ccccc3c2)[C@@H]2CCN(C(=O)CCN3CCCCC3)[C@@H]12` [Example 54, (3S,3aS,6aR)-1-(Naphthalene-2-sulfonyl)-4-(3-piperidin-1-yl-propionyl)-3-propyl-hexahydro-pyrrolo[3,2-b]pyrrol-2-one hydrochloride], the IC50 turned out to be 120 nM.
Consider `C=CC[C@H]1C(=O)N(S(=O)(=O)c2ccc3ccccc3c2)[C@H]2CCN(C(=O)OCc3ccccc3)[C@H]12` [Example 55, (3aS,6R,6aR)-6-Allyl-4-(naphthalene-2-sulfonyl)-5-oxo-hexahydro-pyrrolo[3,2-b]pyrrole-1-carboxylic acid benzyl ester], for which the IC50 stood at 38 nM.
As for `CCC[C@H]1C(=O)N(S(=O)(=O)c2ccc3ccccc3c2)[C@H]2CCN(C(=O)CCN3CCCCC3)[C@H]12` [Example 56, (3R,3aR,6aS)-1-(Naphthalene-2-sulfonyl)-4-(3-piperidin-1-yl-propionyl)-3-propyl-hexahydro-pyrrolo[3,2-b]pyrrol-2-one hydrochloride], the IC50 was found to be 81 nM.
For the molecule `CCC[C@H]1C(=O)N(S(C)(=O)=O)[C@H]2CCN(C(=O)CCCCCN3CCCCCC3)[C@H]12` [Example 115, (3R,3aR,6aS)-4-(6-Azepin-1-yl-hexanoyl)-1-methanesulfonyl-3-propyl-hexahydro-pyrrolo[3,2-b]pyrrol-2-one hydrochloride], the IC50 worked out at 314 nM.
Take `CCC[C@H]1C(=O)N(S(C)(=O)=O)[C@H]2CCN(C(=O)CCN3CCCCC3)[C@H]12` [Example 116, (3R,3aR,6aS)-1-Methanesulfonyl-4-(3-piperidin-1-yl-propionyl)-3-propyl-hexahydro-pyrrolo[3,2-b]pyrrol-2-one hydrochloride]: the half-inhibitory concentration (IC50) is 417 nM.
The same measure, in the same setting: the result for “rel-(3aS,6R,6aR)-6-Allyl-4-benzylsulfamoyl-5-oxo-hexahydro-pyrrolo[3,2-b]pyrrole-1-carboxylic acid benzyl ester [Example 19]” reads 5230 nM.
